The target in experiment [1] is T1, human α2-GABAA receptor (α2-GABAAR-HEK293 cells) (Homo sapiens, UniProt P18507+P47869).
T1 construct: expressed in transfected cells
Put plainly: Whole-cell patch-clamp electrophysiology, positive allosteric modulatory activity on α2-GABAA receptor. The experiment is classed as cell-based. Conditions: read-out: α2-GABAA positive allosteric modulatory activity. The source says:
(§1) α subunit, β subunit, and γ subunit are essential for the formation of a complete and functional GABAA receptor. In this example of the present disclosure, HEK293 cells stably expressing the human α1-GABAA receptor (α1-GABAAR) and α2-GABAA receptor (α2-GABAAR) were constructed and separately selected using the lipofection method (Felgner, P. L., et al. Proceedings of the National Academy of Sciences, 1987, 84: 7413-7417). The α1-GABAAR-HEK293 cell model simultaneously expressed the α1 subunit (for protein sequence, see GenBank accession No.: NM_000806.5), the […] (for protein sequence, see GenBank accession No.: NM_000814.5), and the […] (for protein sequence, see GenBank accession No.: NM_000816.3). The α2-GABAAR-HEK293 cell model simultaneously expressed the α2 subunit (for protein sequence, see GenBank accession No.: NM_000807.4), the β3 subunit (for protein sequence, see GenBank accession No.: NM_000814.5), and the γ2 subunit (for protein sequence, see GenBank accession No.: NM_000816.3).
(§2) The above cell lines were subcultured. The α2-GABAAR-HEK293 cells were expanded for testing the affinity of compounds to the benzodiazepine (BZD) site of the GABAA receptor. During the passage process, some of the α1-GABAAR-HEK293 cells and α2-GABAAR-HEK293 cells were suspended and plated on a slide pre-treated with Poly-D-Lysine for electrophysiological testing (method referenced from patent CN107344936A, paragraph 0586).
(§3) The positive regulatory activity of the test drugs on the α1-GABAA receptor and the α2-GABAA receptor was detected by the electrophysiological method. The specific method was as follows:
(§4) Compound concentration setting: The final concentration of the compounds used for screening was 100 nM. For cell lines expressing the α1-GABAA receptor, the concentration of GABA was 0.05 to 0.07 μM (approximately EC2-4). For cell lines expressing the α2-GABAA receptor, the concentration of GABA was 0.10 to 0.11 μM (approximately EC7-8). Electrophysiological testing was performed using the whole-cell patch-clamp technique, which can refer to the method reported in the literature (Nickolls, S. A., et al. British Journal of Pharmacology, 2018, 175: 708-725). The composition of the extracellular solution (ECS) for electrophysiology was as follows: 150 mM NaCl, 5 mM KCl, 2.5 mM CaCl2, 1 mM MgCl2, 10 mM HEPES, and 10 mM glucose (pH 7.4). The formulation of the intracellular solution (ICS) for electrophysiology was as follows: 140 mM CsCl, 11 mM EGTA, 10 mM HEPES, 2 mM CaCl2, 1 mM MgCl2, 4 mM MgATP, and 2 mM TEA (pH 7.3). GABA (γ-aminobutyric acid) powder was prepared into a mother liquor with pure water, which was then diluted in ECS. The compound was first prepared into a 4 mM mother liquor with dimethyl sulfoxide, which was then gradually diluted in the corresponding concentration of GABA-ECS. The solutions were freshly prepared prior to electrophysiological testing.
(§5) Electrophysiological signal acquisition was performed using an EPC 10 amplifier and PatchMaster software (HEKA) or an Axon 700B amplifier and Clampex software (AXON). The recording electrode was made through a drawing process using borosilicate glass, with an electrode resistance of 4 to 6 MΩ. Extracellular administration was performed using the ALA-VC-8PG™ system. A single, independently growing cell was selected. After the glass electrode formed a good seal with the cell, the membrane was ruptured to form the whole-cell configuration. The cell membrane potential was clamped at −60 mV and recorded in Gap-free mode. During the test, the extracellular solution was first applied extracellularly for approximately 20 seconds. After the baseline (Iprebaseline) stabilized, the extracellular solution was switched to GABA-ECS. At this point, the current induced by GABA (Igaba) could be detected. After approximately 10 to 20 seconds, when the current stabilized, the extracellular solution was switched to a mixture of the compound and GABA-ECS. […]
On the technique in general: The patch-clamp technique gives a direct electrical read-out from membranes.

Experiment [2] deals with T2, human α1-GABAA receptor (α1-GABAAR-HEK293 cells) (Homo sapiens, UniProt P14867+P18507).
T2 construct: expressed in transfected cells
Put plainly: Whole-cell patch-clamp electrophysiology, positive allosteric modulatory activity on α1-GABAA receptor. The experiment is classed as cell-based. The conditions noted are these: read-out: α1-GABAA positive allosteric modulatory activity.
Text: as §1, §2, §3, §4, §5

Experiment [3] deals with T3, human α2-GABAA receptor (BZD site, membrane protein of HEK293 cells) (Homo sapiens, UniProt P18507+P47869).
T3 construct: expressed in transfected cells
The experiment can be described thus: Radioligand competitive binding assay (3H-flunitrazepam) at the BZD site of the α2-GABAA receptor. The conditions noted are these: competition with 1 nM 3H-flunitrazepam; Ki calculated from IC50; read-out: α2 Ki.
Text: as §1, §2
The affinity of the compounds for the α2-GABAA receptor was determined by competing for the binding of ^3H-flunitrazepam (isotope ^3H-labelled flunitrazepam) to the BZD site on the membrane protein of HEK293 cells stably expressing the human α2-GABAAR.
Membrane preparation: Cells were suspended in 50 mM Tris-HCl buffer (pH=7.4), homogenized 10 times for 20 seconds with a homogenizer on ice, and centrifuged at 1000 g for 10 minutes at 4° C. The supernatant was taken, and the above steps were repeated. The supernatant was centrifuged at 4° C. (33800 g; Thermo, rotor: A27-8×50) for 60 minutes. The precipitate was resuspended in Tris buffer (50 mM Tris-HCl, 10 mM MgCl2, 0.5 mM EDTA, and 10% glycerol). The protein content was determined (BCA (bicinchoninic acid) protein quantification assay based on copper ion reduction, with a BCA kit purchased from Pierce (Annoron (Beijing) Biotechnology Co., Ltd.)), and 1 mL aliquots were prepared and stored at −80° C.
Radioligand competitive binding assay: This assay was performed in a 200 μL system (96-well plate) containing 100 μL of cell membrane. The concentration of ^3H-flunitrazepam was 1 nM, and the concentrations of the test compounds were in the range of […]. Flumazenil was used as a control. 1 μL of 2 mM flumazenil (final […]) was added to each low signal control (low control, LC) well, and 1 μL of dimethyl sulfoxide was added to each high signal control (high control, HC) well. The final concentration of target membrane protein was […]. All sample stock solutions of test compounds were 10 mM dimethyl sulfoxide solutions. All the samples were diluted to a concentration of 0.2 mM with dimethyl sulfoxide, and then subjected to a 4-fold serial dilution for a total of 8 working concentration gradients. The 96-well plate was sealed with a sealing membrane and then incubated on a shaker at room temperature for 1 hour. Meanwhile, a GF/C filter plate was soaked in plate soaking buffer (0.3% PEI (polyethyleneimine, purchased from Sigma-Aldrich, model: P314), stored at 4° C.) for at least 0.5 hours. After the binding incubation was completed, the cells were harvested onto the GF/C filter plate using a cell harvester and washed four times with plate washing buffer (50 mM Tris-HCl, pH 7.4, stored at 4° C.). After drying in an oven at 50° C. for 1 hour, the dried GF/C filter plate was bottom-sealed. The residual radioactivity on the filter membrane was detected by liquid scintillation counting.

By Ki is commonly meant a measure of affinity in units of concentration, obtained from inhibition or displacement. As to `CCn1cnc2c(-c3ccc(F)c(-c4cc5ccn(C)c(=O)c5cc4OC)c3)cnnc21` [Example 121, 6-(5-(7-Ethyl-7H-imidazo[4,5-c]pyridazin-4-yl)-2-fluorophenyl)-7-methoxy-2-methylisoquinolin-1(2H)-one], the activation at 0.1 µM in experiment [1] was 90%; in experiment [2], -6%. Also, the Ki in experiment [3] was 3.02 nM.

Consider `CCn1cnc2c(-c3ccc(F)c(-c4cc5cn(C6CN(C)C6)nc5cc4OC)c3)cnnc21` [Example 117], for which the activation at 0.1 µM in experiment [1] came to 86%; in experiment [2], 37%. Also, in experiment [3], the Ki is 15.2 nM.

Consider `CCn1cnc2c(-c3ccc(F)c(-c4cc5cn(C6CCN(C)CC6F)nc5cc4OC)c3)cnnc21` (stereo not drawn) [Example 76, 7-Ethyl-4-(4-fluoro-3-(2-(3-fluoro-1-methylpiperidin-4-yl)-6-methoxy-2H-indazol-5-yl)phenyl)-7H-[4,5-c]pyridazine], for which the activation at 0.1 µM in experiment [1] turned out to be 107%; in experiment [2], 61%. The Ki in experiment [3] is 2.43 nM.

Turning to `CCn1cnc2c(-c3ccc(F)c(-c4cc5oc(=O)n(CCOC)c5cc4OC)c3)cnnc21` [Example 28, 6-(5-(7-Ethyl-7H-imidazo[4,5-c]pyridazin-4-yl)-2-fluorophenyl)-5-methoxy-3-(2-methoxyethyl)benzo[d]oxazol-2(3H)-one], the activation at 0.1 µM stood at 115% in experiment [1] and 38% in experiment [2]. Besides, the Ki in experiment [3] is 8.56 nM.

In the case of `COc1cc2nn(C)cc2cc1-c1cc(-c2cnnc3c2ncn3C(C)C)ccc1F` [Example 49, 4-(4-Fluoro-3-(6-methoxy-2-methyl-2H-indazol-5-yl)phenyl)-7-isopropyl-7H-imidazo[4,5-c]pyridazine], the figures for the activation at 0.1 µM in experiment [1] and in experiment [2] were 94% and 58%, respectively. The Ki in experiment [3] is 9.16 nM.

For `CCn1cnc2c(-c3ccc(F)c(-c4cc5c(cc4OC)N(C)C(=O)C(C)O5)c3)cnnc21` (stereo not drawn) [Example 26, 7-(5-(7-Ethyl-7H-imidazo[4,5-c]pyridazin-4-yl)-2-fluorophenyl)-6-methoxy-2,4-dimethyl-2H-benzo[b][1,4]oxazin-3(4H)-one], the activation at 0.1 µM was 120% in experiment [1] and 48% in experiment [2]. Further, the Ki in experiment [3] was 8.95 nM.

For the compound `CCn1cnc2c(-c3ccc(F)c(-c4cc5oc(C6CCOCC6)nc5cc4OC)c3)cnnc21` [Example 93, 6-(5-(7-Ethyl-7H-imidazo[4,5-c]pyridazin-4-yl)-2-fluorophenyl)-5-methoxy-2-(tetrahydro-2H-pyran-4-yl)benzo[d]oxazole], the activation at 0.1 µM in experiment [1] amounted to 115%; in experiment [2], 79%. Besides, in experiment [3], the Ki was 8.32 nM.

As to `CCn1cnc2c(-c3ccc(F)c(-c4cc5cn(C6CC6)nc5cc4OC)c3)cnnc21` [Example 114, 4-(3-(2-Cyclopropyl-6-methoxy-2H-indazol-5-yl)-4-fluorophenyl)-7-ethyl-7H-imidazo[4,5-c]pyridazine], the activation at 0.1 µM in experiment [1] amounted to 107%; in experiment [2], 68%. Moreover, in experiment [3], the Ki is 9.97 nM.

Regarding `COc1cc2c(cc1-c1cc(-c3cnnc4c3ncn4C(C)C)ccc1F)oc(=O)n2C` [Example 35, 6-(2-Fluoro-5-(7-isopropyl-7H-imidazo[4,5-c]pyridazin-4-yl)phenyl)-5-methoxy-3-methylbenzo[d]oxazol-2(3H)-one], the activation at 0.1 µM in experiment [1] is 134%; in experiment [2], 80%. For the same compound, the Ki in experiment [3] was 7.73 nM.

As for `CCn1cnc2c(-c3ccc(F)c(-c4cc5cccnc5cc4OC)c3)cnnc21` [Example 139, 6-(5-(7-Ethyl-7H-imidazo[4,5-c]pyridazin-4-yl)-2-fluorophenyl)-7-methoxyquinoline], the activation at 0.1 µM in experiment [1] is 122%; in experiment [2], 35%. The Ki in experiment [3] was 13.2 nM.

These data come from patent US20260159519A1, “IMIDAZOPYRIDAZINE SUBSTITUTED BENZENE RING DERIVATIVE, PREPARATION METHOD, PHARMACEUTICAL COMPOSITION AND USE” (SHANGHAI SIMR BIOTECHNOLOGY CO., LTD., priority 2022, published 2026).
